Experimental data as given in patent US12291529B2, “Heterocyclic GLP-1 agonists” (Gasherbrum Bio, Inc., priority 2023, dated 2025).
pEC50: −log10 of the molar value. Values after ≈ are worked out from the molar mass of the structure shown.

Legend:
GLP-1 Receptor = GLP-1 Receptor (Homo sapiens, UniProt P43220); experiment: GLP-1R agonist cAMP stimulation assay (HEK293/GLP1R/CRE-LUC cells, Cisbio cAMP dynamic 2 kit); assay type: cell-based
Procedure, shortened: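 HEK293 cells stably expressing human GLP-1R with CRE-Luc reporter, 1000 cells/well in DPBS with 0.5 mM IBMX and BSA. Cells treated with compound (½-log dilutions) for 30 min at 37 °C. cAMP read by HTRF at 665/615 nm; % activity relative to vehicle and maximal control.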

[1] = Caco-2 permeability / efflux study; assay type: in vitro ADME; conditions: human; for Papp at 2 h, 10 μM: Caco-2, pH 7.4, 10 μM, 37° C., pH 7.4, 0.5% BSA, read-out: Caco-2 Perm; for efflux ratio at 2 h, 10 μM: Caco-2, pH 7.4, Caco-2 efflux ratio
Experimental: Incubations with Caco-2 cell monolayers were performed in duplicate in a 96-well Transwell plate. Transport buffer solution (HBSS, 10 mM HEPES, pH 7.4, with 0.5% BSA) containing test article (10 μM), and either the control compounds metoprolol (10 μM), cimetidine (10 μM) and erythromycin (10 μM), was added to appropriate donor wells of the apical or basolateral plate. The transport buffer with DMSO was added to appropriate wells of receiver wells. Following incubation at 37° C. for 2 hours, the cell plates were removed and 50 μL samples from both apical and basolateral sides were transferred into new 96-well plates. Subsequently, 200 μL of acetonitrile containing internal standard was added to all samples to precipitate protein prior to analysis by UPLC-MS/MS. Lucifer yellow was used as a marker to confirm the integrity of the cell monolayers after 2 hours incubation.

FaSSIF solubility = assay type: physicochemical; conditions: FaSSIF buffer, 25 °C, fassif, thermodynamic from solid
Experimental: Stock solution of test article and control compound (chlorpromazine, astemizole, and phenytoin) were prepared in DMSO at 10 mM. 50 μL each of stock solutions were dried down, followed by reconstitution to 1 mM with FaSSIF buffer in the well. The incubation plate was shaked at 25° C., 1,100 rpm for 4 hours. And then, the samples were filtered by using the vacuum manifold. 10 μL aliquots from each well was transferred to a new 96-well plate and adjust the volume to 80 μL with blank buffer. Using a mixture of H2O and acetonitrile containing internal standard (1:1) to dilute the sample 100-fold, 500-fold and 2,500-fold. The samples are evaluated by LC/MS/MS analysis. All compounds were tested in singlet.

[2] = Rat IV/PO PK study, Method A; assay type: in vivo, male Sprague Dawley (SD) rats; conditions: for AUC (ng · h/mL)_free form/dose: 5 mpk, free form; for half-life: 1 mg/kg, elimination half life (IV); for half-life / bioavailability: Method A; for bioavailability: PO vs IV, read-out: Bioavailablility (% F)
Experimental: Pharmacokinetics (PK) study was conducted on male Sprague Dawley (SD) rats by two delivery routes intravenous (IV) and/or oral gavage (PO). Rats in IV route (n=3) were free access to food and water. Rats in PO route (n=3) were fasted overnight and fed at 4 hrs post dosing. Test article was formulated in solution (10% solutol HS 15 in saline) for IV route and solution or suspension (10% solutol HS 15 in saline/water) for PO route, respectively. On the day of experiment, test article was administered via vein (e.g. foot dorsal vein) injection (commonly at 1 mg/kg and 5 mL/kg) for IV route or via oral gavage (commonly at 2 or 5 mg/kg and 5 mL/kg) for PO route, respectively. Blood samples were collected via serial bleeding at ˜8 time points from 0.083 to 24 hrs post dose. Approximate 150 μL of blood/time point was collected into K2EDTA tube via tail vein or jugular vein. Blood samples were put on wet ice and centrifuged to obtain plasma samples and plasma samples were submitted to LC-MS/MS for sample analysis. Pharmacokinetics parameters, including elimination half life (t1/2) (IV), area under the curve (AUC) and oral bioavailability (F %), etc. were calculated by non-compartmental model using WinNonlin.

[3] = Rat PO PK study, Method B; assay type: in vivo, male Sprague Dawley (SD) rats; conditions: for AUC / Cmax: male, Sprague Dawley, plasma, 10% solutol HS 15
Experimental: Pharmacokinetics (PK) study was conducted on male Sprague Dawley (SD) rats by oral gavage (PO). Rats in PO route (n=3) were free access to food and water. […] On the day of experiment, test article was administered via oral gavage (commonly at 10, 30, or 100 mg/kg, with dose volume as 10 mL/kg). Blood samples were collected via serial bleeding at ˜8 time points from 0.25 to 24 hrs post dose. Approximate 150 μL of blood/time point was collected into KzEDTA tube via tail vein or jugular vein. Blood samples were put on wet ice and centrifuged to obtain plasma samples and plasma samples were submitted to LC-MS/MS for sample analysis. Pharmiacokinetics parameters, including Cmax, and area under the curve (AUC), etc. were calculated by non-compartmental model using WinNonlin.

[4] = Table 3, HEK293/GLP1R/CRE-LUC cells, 30 min
[5] = male, Sprague Dawley, plasma, PO, 2 mg/kg, *obtained under method 3A

GLP-1 Receptor, sequence (P43220 24-463, species assumed): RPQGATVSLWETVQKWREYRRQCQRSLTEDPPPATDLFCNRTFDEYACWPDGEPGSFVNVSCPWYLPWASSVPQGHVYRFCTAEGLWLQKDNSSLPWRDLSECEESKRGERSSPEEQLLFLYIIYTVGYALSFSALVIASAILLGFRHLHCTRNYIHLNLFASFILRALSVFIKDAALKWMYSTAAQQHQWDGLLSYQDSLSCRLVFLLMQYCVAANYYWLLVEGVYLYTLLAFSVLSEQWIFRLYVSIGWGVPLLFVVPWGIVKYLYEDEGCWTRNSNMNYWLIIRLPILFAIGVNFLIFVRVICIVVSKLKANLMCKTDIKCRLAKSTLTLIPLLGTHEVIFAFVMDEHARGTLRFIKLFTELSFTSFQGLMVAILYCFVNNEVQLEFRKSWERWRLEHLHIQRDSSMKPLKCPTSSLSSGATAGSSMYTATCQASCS

| pEC50 (GLP-1 Receptor; [4]) | pEC50 (GLP-1 Receptor; Table 4) | Papp at 2 h, 10 μM [1] [×10⁻⁶ cm/s] | efflux ratio at 2 h, 10 μM [1] | solubility at 4 h (FaSSIF solubility) [µM] | AUC (ng · h/mL)_free form/dose ([2]; PO) | half-life ([2]; male, Sprague Dawley, plasma) [h] | bioavailability ([2]; male, Sprague Dawley, plasma) [%] | AUC [2, 5] [ng·h/mL] | Cmax [2, 5] [ng/mL] | rat PK dose proportionality of exposure ([3]; free form, same formulation) | AUC ([3]; 10 mg/kg) [ng·h/mL] | Cmax ([3]; 10 mg/kg) [ng/mL] | AUC ([3]; 30 mg/kg) [ng·h/mL] | Cmax ([3]; 30 mg/kg) [ng/mL] | Structure (SMILES) |
| --- | --- | --- | --- | --- | --- | --- | --- | --- | --- | --- | --- | --- | --- | --- | --- |
|  | 10.66 | 0.126 | 51.7 | 4 (≈ 3.5 µg/mL) |  |  |  |  |  |  |  |  |  |  | CCS(=O)(=O)c1ccc(-n2ccn(-c3c4c(nn3-c3cc(C)c(F)c(C)c3)CCN(C(=O)c3cc5cc(C6CCOCC6)ccc5n3[C@@]3(c5noc(=O)[nH]5)C[C@@H]3C)[C@H]4C)c2=O)cc1 [Compound C-1, reference compound] |
|  | 10.37 | < 0.05 | > 62.6 | 9.3 (≈ 8.25 µg/mL) |  |  |  |  |  |  |  |  |  |  | Cc1cc(-n2nc3c(c2-n2ccn(-c4ccc(S(=O)(=O)C5CC5)cc4)c2=O)[C@H](C)N(C(=O)c2cc4cc(C5CCOCC5)ccc4n2[C@@]2(c4noc(=O)[nH]4)C[C@@H]2C)CC3)cc(C)c1F [Compound C-2, reference compound] |
|  |  | 0.05 | 78.1 | 6.45 (≈ 5.65 µg/mL) |  |  |  |  |  |  |  |  |  |  | CNS(=O)(=O)c1ccc(-n2ccn(-c3c4c(nn3-c3cc(C)c(F)c(C)c3)CCN(C(=O)c3cc5cc(C6CCOCC6)ccc5n3[C@@]3(c5noc(=O)[nH]5)C[C@@H]3C)[C@H]4C)c2=O)cc1 [Compound C-3, reference compound] |
|  | 9.85 | 0.18 | 16.7 | 5.38 (≈ 4.85 µg/mL) |  |  |  |  |  |  |  |  |  |  | Cc1cc(-n2nc3c(c2-n2ccn(-c4ccc(N5CCCS5(=O)=O)cc4)c2=O)[C@H](C)N(C(=O)c2cc4cc(C5CCOCC5)ccc4n2[C@@]2(c4noc(=O)[nH]4)C[C@@H]2C)CC3)cc(C)c1F [Compound C-4, reference compound] |
|  |  | 0.21 |  | 0.4 (≈ 0.353 µg/mL) |  | 8.1 | 36 | 4400 | 573 | plateaued at 10 mg/kg | 14500 | 1250 | 13000 | 1010 | Cc1cc(-n2nc3c(c2-n2ccn(-c4ccc5c(cnn5C)c4F)c2=O)[C@H](C)N(C(=O)c2cc4cc([C@H]5CCOC(C)(C)C5)ccc4n2[C@@]2(c4noc(=O)[nH]4)C[C@@H]2C)CC3)cc(C)c1F [Compound C-5, reference compound] |

The next lines start with the compound.

| Structure (SMILES) | pEC50 (GLP-1 Receptor; [4]) | pEC50 (GLP-1 Receptor; Table 4) | Papp at 2 h, 10 μM [1] [×10⁻⁶ cm/s] | efflux ratio at 2 h, 10 μM [1] | solubility at 4 h (FaSSIF solubility) [µM] | AUC (ng · h/mL)_free form/dose ([2]; PO) | half-life ([2]; male, Sprague Dawley, plasma) [h] | bioavailability ([2]; male, Sprague Dawley, plasma) [%] | AUC [2, 5] [ng·h/mL] | Cmax [2, 5] [ng/mL] | rat PK dose proportionality of exposure ([3]; free form, same formulation) | AUC ([3]; 10 mg/kg) [ng·h/mL] | Cmax ([3]; 10 mg/kg) [ng/mL] | AUC ([3]; 30 mg/kg) [ng·h/mL] | Cmax ([3]; 30 mg/kg) [ng/mL] |
| --- | --- | --- | --- | --- | --- | --- | --- | --- | --- | --- | --- | --- | --- | --- | --- |
| CN=S(C)(=O)c1ccc(-n2ccn(-c3c4c(nn3-c3cc(C)c(F)c(C)c3)CCN(C(=O)c3cc5cc(C6CCOCC6)ccc5n3[C@@]3(c5noc(=O)[nH]5)C[C@@H]3C)[C@H]4C)c2=O)cc1 (single isomer, unassigned) [Compound 121] | 10.72 | 10.82 | 0.1 | 90.8 | 7.3 (≈ 6.38 µg/mL) |  |  |  |  |  |  |  |  |  |  |
| CCS(=O)(=NC)c1ccc(-n2ccn(-c3c4c(nn3-c3cc(C)c(F)c(C)c3)CCN(C(=O)c3cc5cc(C6CCOCC6)ccc5n3[C@@]3(c5noc(=O)[nH]5)C[C@@H]3C)[C@H]4C)c2=O)cc1 (single isomer, unassigned) [Compound 144] | 10.77 | 10.77 | 0.36 | 24.1 | 2.56 (≈ 2.27 µg/mL) |  |  |  |  |  |  |  |  |  |  |
| CCS(=O)(=NC)c1ccc(-n2ccn(-c3c4c(nn3-c3cc(C)c(F)c(C)c3)CCN(C(=O)c3cc5cc(C6CCOCC6)ccc5n3[C@@]3(c5noc(=O)[nH]5)C[C@@H]3C)[C@H]4C)c2=O)c(F)c1 (single isomer, unassigned) [Compound 149] | 10.64 | 10.64 | 0.33 | 26 | 2.04 (≈ 1.85 µg/mL) | 4,276/5 mpk ng · h/mL | 1.6 | 32 |  |  |  |  |  |  |  |
| Cc1cc(-n2nc3c(c2-n2ccn(-c4ccc(S(=N)(=O)C5CC5)cc4F)c2=O)[C@H](C)N(C(=O)c2cc4cc([C@H]5CCOC(C)(C)C5)ccc4n2[C@@]2(c4noc(=O)[nH]4)C[C@@H]2C)CC3)cc(C)c1F (single isomer, unassigned) [Compound 181] | 10.74 | 10.85 | 0.24 | 38 |  | 6,097/5 mpk ng · h/mL | 1.66 | 30 |  |  |  |  |  |  |  |
| CN=S(=O)(c1ccc(-n2ccn(-c3c4c(nn3-c3cc(C)c(F)c(C)c3)CCN(C(=O)c3cc5cc([C@H]6CCOC(C)(C)C6)ccc5n3[C@@]3(c5noc(=O)[nH]5)C[C@@H]3C)[C@H]4C)c2=O)c(F)c1Cl)C1CC1 (single isomer, unassigned) [Compound 214] | 10.48 | 10.48 | 0.34 | 11.4 | 9.9 (≈ 9.71 µg/mL) |  |  |  |  |  |  |  |  |  |  |
| CCS(=O)(=NC)c1ccc(-n2ccn(-c3c4c(nn3-c3cc(C)c(F)c(C)c3)CCN(C(=O)c3cc5cc([C@H]6CCOC(C)(C)C6)ccc5n3[C@@]3(c5noc(=O)[nH]5)C[C@@H]3C)[C@H]4C)c2=O)c(F)c1C (single isomer, unassigned) [Compound 216] | 10.19 | 10.17 | 0.32 | 15.7 | 7.9 (≈ 7.49 µg/mL) |  |  |  |  |  |  |  |  |  |  |
| CN=S(=O)(c1ccc(-n2ccn(-c3c4c(nn3-c3cc(C)c(F)c(C)c3)CCN(C(=O)c3cc5cc(C6CCOCC6)ccc5n3[C@@]3(c5noc(=O)[nH]5)C[C@@H]3C)[C@H]4C)c2=O)c(F)c1)C1CC1 (single isomer, unassigned) [Compound 221] | 10.52 | 10.51 | 0.34 | 38.5 | 4.05 (≈ 3.72 µg/mL) |  |  |  |  |  |  |  |  |  |  |
